From PubChem BioAssay (NCI)
“And” between values parts separate entries of the source, which are not always exact repeats. Equal values may be shown once.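 Compound exposure: 48 hours, 5 concentrations, 96-well plates. Abbreviation: GI50, concentration required for 50% inhibition of growth. TGI is the concentration that stops growth completely.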

Assays:
Experiment in all cases: DTP human tumour cell line panel, 48 h
A549 NSCLC = system: A549 NSCLC
HCT-116 colon = system: HCT-116 colon
HCT-15 colon = system: HCT-15 colon
HOP-92 NSCLC = system: HOP-92 NSCLC
M14 melanoma = system: M14 melanoma
MDA-MB-231 breast = system: MDA-MB-231 breast
MDA-N = system: MDA-N
NCI-H226 lung = system: NCI-H226 lung
NCI/ADR-RES ovarian = system: NCI/ADR-RES ovarian
OVCAR-4 ovarian = system: OVCAR-4 ovarian
OVCAR-5 ovarian = system: OVCAR-5 ovarian
SK-MEL-5 melanoma = system: SK-MEL-5 melanoma
SN12C renal = system: SN12C renal
SNB-19 CNS = system: SNB-19 CNS
T-47D breast = system: T-47D breast
U251 CNS = system: U251 CNS

| Structure (SMILES) | TGI (A549 NSCLC) | TGI (HCT-116 colon) | TGI (HCT-15 colon) | TGI (HOP-92 NSCLC) | TGI (M14 melanoma) | TGI (MDA-MB-231 breast) | TGI (MDA-N) | TGI (NCI-H226 lung) | TGI (NCI/ADR-RES ovarian) | TGI (OVCAR-4 ovarian) | TGI (OVCAR-5 ovarian) | TGI (SK-MEL-5 melanoma) | TGI (SN12C renal) | TGI (SNB-19 CNS) | TGI (T-47D breast) | TGI (U251 CNS) | GI50 (M14 melanoma) | GI50 (MDA-MB-231 breast) | GI50 (SN12C renal) | GI50 (U251 CNS) |
| --- | --- | --- | --- | --- | --- | --- | --- | --- | --- | --- | --- | --- | --- | --- | --- | --- | --- | --- | --- | --- |
| Brc1cccc(C2ON=C(c3ccccc3)N2C23CC4CC(CC(C4)C2)C3)c1 (centres undefined) | > 10 µM | > 10 µM | > 10 µM | > 10 µM | > 10 µM | > 10 µM | > 10 µM | > 10 µM | > 10 µM | > 10 µM | > 10 µM | > 10 µM | > 10 µM | > 10 µM | > 10 µM | > 10 µM |  |  |  |  |
| CC(C)=CC(=O)c1[nH]c2ccccc2c1CC(=O)NCCc1cncn1C | > 100 µM | > 100 µM | > 100 µM | > 100 µM | > 100 µM | > 100 µM | > 100 µM | > 100 µM | > 100 µM | > 100 µM | > 100 µM | > 100 µM | > 100 µM | > 100 µM | > 100 µM | > 100 µM |  |  |  |  |
| C[C@@H]1CC(=O)C[C@@H]2CC[C@H]3[C@@H]4CC[C@H](OC(=O)c5cccc6cc7ccccc7nc56)[C@H]4CC[C@@H]3[C@H]21 | 83.2 µM | 27.1 µM | 36.6 µM | 48.1 µM | 31.6 µM | 37 µM | 26.3 µM | 63.7 µM | 55.1 µM | 30.9 µM | 34.9 µM | 28.3 µM | 33.1 µM | 37.5 µM | 37.5 µM | 19.8 µM |  |  |  |  |
| CC(=O)NC1=NC(=O)/C(=C/c2ccc(/C=C3/C(=O)N=C(NC(C)=O)N3C)cc2)N1C | > 100 µM | > 100 µM | > 100 µM | > 100 µM | > 100 µM | > 100 µM | > 100 µM | > 100 µM | > 100 µM | > 100 µM | > 100 µM | > 100 µM | > 100 µM | > 100 µM | > 100 µM | > 100 µM |  |  |  |  |
| O=c1[nH]c(NCc2ccc(Cl)cc2)nc2nc[nH]c12 | > 100 µM | > 100 µM | > 100 µM | > 100 µM | > 100 µM | > 100 µM | > 100 µM | > 100 µM | > 100 µM | > 100 µM | > 100 µM | > 100 µM | > 100 µM | > 100 µM | > 100 µM | > 100 µM |  |  |  |  |
| Cc1ccc(C2(c3ccc(F)cc3)OC(=O)c3ccccc32)c(O)c1 (centres undefined) | 47.2 µM | 26.2 µM | 32.7 µM | 34.9 µM | 30.1 µM | 46.1 µM | 24.3 µM | 76.2 µM | 46.8 µM | 41.1 µM | 28.5 µM | 33.8 µM | 27.9 µM | 38.1 µM | 28.1 µM | 46.2 µM |  |  |  |  |
| COc1ccc(NCC(=O)Nn2c(-c3ccccc3)nc3ccccc3c2=O)cc1 | > 100 µM | > 10 µM | > 100 µM | > 100 µM | > 100 µM | 84.4 µM | > 100 µM | > 100 µM | 59.1 µM | > 100 µM | > 100 µM | 32.8 µM | > 100 µM | > 100 µM | > 100 µM | 87.1 µM |  |  |  |  |
| COC1(CC[C@@H](C)COC2OC(CO)C(O)C(O)C2O)O[C@H]2C[C@H]3[C@@H]4CC=C5C[C@@H](OC6OC(CO)C(O)C(OC7OC(CO)C(O)C(O)C7O)C6OC6OC(C)C(O)C(O)C6O)CC[C@]5(C)[C@H]4CC[C@]3(C)[C@H]2[C@@H]1C (some centres undefined) | 9.36 µM | 34.9 µM | 11.8 µM | 12.3 µM | 5.41 µM | 16.5 µM | 23.1 µM | 26.5 µM | 33.6 µM | 28.4 µM | > 39.4 µM | 27.5 µM | > 56 µM | 21.2 µM | 25.9 µM | 4.13 µM |  |  |  |  |
| CCOC(=O)/C=C(\C(=O)OCC)n1cc(C)c(=O)n(Cc2cnnn2COCCOC(C)=O)c1=O | 47.1 µM | 22.2 µM | 12 µM | 4.27 µM | 57.5 µM | 42.7 µM | 44 µM | 35 µM | 43.7 µM | 32 µM | 43.8 µM | > 51.6 µM | 36.2 µM | > 61.8 µM | 28.9 µM | 43.6 µM |  |  |  |  |
| CN(C)c1ccc(/C=C/c2sc3ccccc3[n+]2C)cc1 | 16.7 µM and 17.2 µM | 10.9 µM and > 100 µM | 29.3 µM and 24.2 µM | 5.34 µM and 8.69 µM | 16.2 µM and 3.29 µM | 10.1 µM and 33.8 µM | 7.36 µM | 15.4 µM and 7.31 µM | > 100 µM | 10.2 µM and 9.3 µM | 26.6 µM and 61.5 µM | 3.93 µM and 3.27 µM | 7.6 µM and 15.7 µM | 14 µM and > 100 µM | 11.1 µM and 30.5 µM | 13.8 µM and > 100 µM | 3.66 µM and 0.427 µM | 2 µM and 7.25 µM | 1.71 µM and 0.645 µM | 0.479 µM and 0.121 µM |
